Reference: patent US8008487B2, “Substituted thieno[2,3-D]pyrimidines as fungicides” (priority 2004, dated 2011)

Assays:
Format in all cases: in vivo
[1] = test system: Magnaporthe grisea; experiment: whole plant or invertebrate; conditions: Pyricularia oryzae, in Oryza sativa, foliar, 24 h, read-out: PYRIOR percent control of disease, 200 ppm on foliage, rice, one-day protectant test
[2] = test system: Leptosphaeria nodorum; experiment: Glume Blotch of Wheat (LEPTNO), whole-plant fungicide test; conditions: Parastagonospora nodorum, foliar, 24 h, 200 ppm on foliage, one-day protectant test, read-out: LEPTNO percent control of disease
[3] = test system: Septoria tritici; experiment: Speckled Leaf Blotch of Wheat (SEPTTR), whole-plant fungicide test; conditions: Zymoseptoria tritici, foliar, 24 h, 200 ppm on foliage, one-day protectant test, read-out: SEPTTR percent control of disease
[4] = test system: Puccinia recondita tritici; experiment: Leaf Rust of Wheat (PUCCRT), whole-plant fungicide test; conditions: Puccinia recondita, 24 h, one-day protectant test, read-out: PUCCRT percent control of disease; for pest or weed control at 200 ppm: foliar, 200 ppm on foliage; for pest or weed control at 100 ppm: 100 ppm (footnote a)
[5] = test system: Erysiphe cichoracaerum; experiment: Cucumber Powdery Mildew (ERYSCI), whole-plant fungicide test; conditions: Erysiphe, foliar, 24 h, 200 ppm on foliage, one-day protectant test, read-out: ERYSCI percent control of disease
[6] = test system: Colletotricum lagenarium; experiment: Cucumber Anthracnose (COLLLA), whole-plant fungicide test; conditions: Cucumis sativus, 24 h, one-day protectant test, read-out: COLLLA percent control of disease; for pest or weed control at 200 ppm: foliar, 200 ppm on foliage; for pest or weed control at 100 ppm: 100 ppm (footnote a)
[7] = test system: Erysiphe graminis f. sp. tritici; experiment: Powdery Mildew of Wheat (ERYSGT), whole-plant fungicide test; conditions: Blumeria graminis, 24 h, one-day protectant test, read-out: ERYSGT percent control of disease; for pest or weed control at 200 ppm: foliar, 200 ppm on foliage; for pest or weed control at 100 ppm: 100 ppm (footnote a)
[8] = test system: Cochliobolus sativus; experiment: Spot Blotch of Wheat (COCHSA), whole-plant fungicide test; conditions: Bipolaris sorokiniana, foliar, 24 h, 200 ppm on foliage, one-day protectant test, read-out: COCHSA percent control of disease
Method: The activity of the compounds as effective fungicides was determined by applying the compounds to plants and observing control of fungal disease. The compounds were formulated at 200 ppm in 10 vol. percent acetone plus 90 vol. percent Triton X water (deionized water 99.99 wt. percent+0.01 wt. percent Triton X100), giving a “formulated test compound.” In a few cases, compounds were formulated at 100, 75 or 8.3 ppm rather than 200 ppm in 10 vol. percent acetone plus 90 vol. percent Triton X water (deionized water 99.99 wt. percent+0.01 wt. percent Triton X100), giving a ‘formulated test compound’. The compounds were tested for ability to control plant diseases in a 1-day protectant test (1DP) or a 2-day curative test (2DC). Formulated test compounds were applied to plants using a turn table sprayer fitted with two opposing air atomization nozzles which delivered approximately 1500 L/ha of spray volume. Plants were inoculated with spores of the fungus the next day (1DP), then incubated in an environment conducive to disease development. In a few cases, the compounds were tested for ability to control plant disease in a two-day curative test. Plants were inoculated with spores of the fungus two days prior to compound application, and incubated in an environment conducive to disease development both before and after compound application (2DC). For all types of tests, disease severity was evaluated 4 to 28 days later, depending on the speed of disease development.
Each pot contained 3-8 seedlings. These plants were sprayed until wet with the formulated test compound. On the following day, the leaves were inoculated with an aqueous spore suspension of Cochliobolus sativus and the plants were kept in high humidity for one to two days to permit spores to germinate and infect the leaf. The plants were then transferred to a greenhouse until disease developed on untreated control plants.
The following table presents the activity of typical compounds of the present invention when evaluated in these experiments. The effectiveness of the test compounds in controlling disease was determined by assessing the severity of disease on treated plants, then converting the severity to percent control based on the level of disease on untreated, inoculated plants.
TABLE 4: Activity of compounds as fungicides. Data are the level at which the given disease was controlled when the given compound was applied to the foliage of the plant at 200 ppm. In a few cases (noted in the table) the compound was applied to the plant at 100, 75 or 8.3 ppm. The plant was inoculated with the fungus one day after treatment. In a few cases (noted in the table) the plant was inoculated with the fungus two days before treatment.

[9] = test system: Phytophthora infestans; experiment: whole plant or invertebrate; conditions: Phytophthora infestans, in Solanum lycopersicum, 24 h; for pest or weed control at 200 ppm: foliar, read-out: PHYTIN percent control of disease, 200 ppm on foliage, tomato, one-day protectant test; for pest or weed control at 100 ppm: read-out: PHYTIN percent control of disease, 100 ppm (footnote a), tomato, one-day protectant test

SMILES	pest or weed control at 200 ppm [1] [%]	pest or weed control at 200 ppm [2] [%]	pest or weed control at 200 ppm [3] [%]	pest or weed control at 200 ppm [4] [%]	pest or weed control at 200 ppm [5] [%]	pest or weed control at 200 ppm [6] [%]	pest or weed control at 200 ppm [7] [%]	pest or weed control at 200 ppm [8] [%]	pest or weed control at 200 ppm [9] [%]	pest or weed control at 100 ppm [9] [%]	pest or weed control at 100 ppm [4] [%]	pest or weed control at 100 ppm [6] [%]	pest or weed control at 100 ppm [7] [%]
CC(Nc1ncnc2scc(Cl)c12)c1ccc(OCc2ccc(OC(F)(F)F)cc2)cc1 (stereo not shown) [Compound 5]	50 to 79	50 to 79	80 to 100	80 to 100	80 to 100	0 to 49	50 to 79	–	–	–	–	–	–
COc1ncc(C(C)Nc2ncnc3scc(Cl)c23)cn1 (stereo not shown) [Compound 55]	50 to 79	50 to 79	80 to 100	80 to 100	–	0 to 49	–	0 to 49	80 to 100	–	–	–	–
FC(F)(F)Oc1ccc(COc2ccc(CCNc3ncnc4scc(Cl)c34)cc2)cc1 [Compound 6]	50 to 79	50 to 79	50 to 79	80 to 100	80 to 100	–	0 to 49	–	–	–	–	–	–
CC(Nc1ncnc2scc(Cl)c12)c1ccc(NC=O)cc1 (stereo not shown) [Compound 58]	80 to 100	0 to 49	50 to 79	80 to 100	0 to 49	50 to 79	–	0 to 49	0 to 49	–	–	–	–
COc1ccc(C(C)Nc2ncnc3scc(F)c23)cn1 (stereo not shown) [Compound 77]	–	–	–	–	–	–	–	–	–	80 to 100	80 to 100	50 to 79	0 to 49
COc1ccc(C(C)Nc2ncnc3scc(Cl)c23)cc1F (stereo not shown) [Compound 66]	80 to 100	0 to 49	–	80 to 100	80 to 100	0 to 49	–	–	50 to 79	–	–	–	80 to 100
CC(Nc1ncnc2scc(F)c12)c1ccc(OCC(F)(F)F)cc1 (stereo not shown) [Compound 78]	–	–	–	–	–	–	–	–	–	80 to 100	80 to 100	80 to 100	80 to 100
Clc1ccc(CCNc2ncnc3scc(Cl)c23)cn1 [Compound 65]	0 to 49	0 to 49	–	80 to 100	80 to 100	0 to 49	–	–	80 to 100	–	–	–	0 to 49
CC(Nc1ncnc2scc(Br)c12)c1ccc(F)nc1 (stereo not shown) [Compound 60]	80 to 100	0 to 49	0 to 49	80 to 100	80 to 100	80 to 100	–	0 to 49	0 to 49	–	–	–	–
COc1ccc(OCC(C)Nc2ncnc3scc(Cl)c23)cn1 (stereo not shown) [Compound 53]	50 to 79	0 to 49	50 to 79	80 to 100	–	0 to 49	–	50 to 79	0 to 49	–	–	–	–
COc1ccc(C(C)Nc2ncnc3scc(F)c23)cc1 (stereo not shown) [Compound 76, (5-Fluorothieno[2,3-d]pyrimidin-4-yl)-[1-(4-methoxyphenyl)ethyl]amine]	–	–	–	–	–	–	–	–	–	80 to 100	80 to 100	50 to 79	0 to 49
CC(COc1cccc(Cl)n1)Nc1ncnc2scc(Cl)c12 (stereo not shown) [Compound 57]	80 to 100	0 to 49	80 to 100	80 to 100	50 to 79	0 to 49	–	0 to 49	0 to 49	–	–	–	–
CC(Nc1ncnc2scc(Cl)c12)c1cnc(OCC(F)(F)F)nc1 (stereo not shown) [Compound 54]	80 to 100	50 to 79	50 to 79	80 to 100	–	0 to 49	–	0 to 49	80 to 100	–	–	–	–
Clc1csc2ncnc(NC3CCc4ccccc43)c12 (stereo not shown) [Compound 8]	50 to 79	0 to 49	0 to 49	50 to 79	0 to 49	0 to 49	0 to 49	–	0 to 49	–	–	–	–
COc1ccc(C(C)Nc2ncnc3scc(Cl)c23)cc1C (stereo not shown) [Compound 63]	80 to 100	50 to 79	–	80 to 100	80 to 100	0 to 49	–	–	50 to 79	–	–	–	80 to 100
CC(=O)Nc1ccc(C(C)Nc2ncnc3scc(Cl)c23)cc1 (stereo not shown) [Compound 59]	80 to 100	0 to 49	50 to 79	80 to 100	50 to 79	0 to 49	–	0 to 49	0 to 49	–	–	–	–
COCC(Nc1ncnc2scc(Cl)c12)c1ccccc1 (stereo not shown) [Compound 62]	80 to 100	0 to 49	50 to 79	80 to 100	80 to 100	0 to 49	–	0 to 49	0 to 49	–	–	–	–
CCOC(=O)c1sc2ncnc(NC(C)c3ccc(OC)cc3)c2c1OC (stereo not shown) [Compound 51, 5-Methoxy-4-[1-(4-methoxyphenyl)ethylamino]thieno[2,3-d]pyrimidine-6-carboxylic Acid Ethyl Ester]	–	0 to 49	0 to 49	0 to 49	–	–	–	0 to 49	–	–	–	–	–
CC(Nc1ncnc2scc(Cl)c12)c1ccc2c(c1)OCO2 (stereo not shown) [Compound 61]	50 to 79	80 to 100	50 to 79	80 to 100	80 to 100	0 to 49	–	50 to 79	0 to 49	–	–	–	–
COc1ccc(C(C)Nc2ncnc3sc([N+](=O)[O-])cc23)cc1 (stereo not shown) [Compound 47, [1-(4-Methoxyphenyl)ethyl]-(6-nitrothieno[2,3-d]pyrimidin-4-yl)amine]	80 to 100	50 to 79	–	80 to 100	0 to 49	0 to 49	–	0 to 49	0 to 49	–	–	–	–
Clc1csc2ncnc(NC3CCCc4ccccc43)c12 (stereo not shown) [Compound 10]	50 to 79	0 to 49	0 to 49	0 to 49	0 to 49	0 to 49	0 to 49	–	0 to 49	–	–	–	–
